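96-well plates; 48 h exposure; 5 concentrations. Endpoints by linear interpolation between flanking doses. Not reached: highest tested concentration assigned. GI50: concentration for 50% inhibition of growth. TGI is the concentration that stops growth completely.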
Experiments:
Test in all cases: DTP human tumour cell line panel, 48 h
OVCAR-8 ovarian = system: OVCAR-8 ovarian
SW-620 colon = system: SW-620 colon
HT29 colon = system: HT29 colon
SF-268 CNS = system: SF-268 CNS
SF-295 CNS = system: SF-295 CNS
HCT-15 colon = system: HCT-15 colon
COLO 205 colon = system: COLO 205 colon
NCI-H522 lung = system: NCI-H522 lung
UACC-257 melanoma = system: UACC-257 melanoma
SNB-19 CNS = system: SNB-19 CNS

| SMILES | TGI (OVCAR-8 ovarian) [µM] | TGI (SW-620 colon) [µM] | TGI (HT29 colon) [µM] | TGI (SF-268 CNS) [µM] | TGI (SF-295 CNS) [µM] | TGI (HCT-15 colon) [µM] | TGI (COLO 205 colon) [µM] | TGI (NCI-H522 lung) [µM] | TGI (UACC-257 melanoma) [µM] | TGI (SNB-19 CNS) [µM] | GI50 (UACC-257 melanoma) [µM] | GI50 (OVCAR-8 ovarian) [µM] | GI50 (SW-620 colon) [µM] | GI50 (HT29 colon) [µM] | GI50 (SNB-19 CNS) [µM] | GI50 (SF-268 CNS) [µM] | GI50 (SF-295 CNS) [µM] | GI50 (HCT-15 colon) [µM] | GI50 (COLO 205 colon) [µM] | GI50 (NCI-H522 lung) [µM] |
| --- | --- | --- | --- | --- | --- | --- | --- | --- | --- | --- | --- | --- | --- | --- | --- | --- | --- | --- | --- | --- |
| CC1(C)CCc2cc3c(cc2O1)OC(C)(C)CC3=O | > 100 | > 100 | > 100 | > 100 | > 100 | > 100 | > 100 | > 100 |  |  |  |  |  |  |  |  |  |  |  |  |
| CN(C)C=O.CN(C)C=O.CN1C(C(=O)Nc2ccccn2)=C([O-])c2ccccc2S1(=O)=O.CN1C(C(=O)Nc2ccccn2)=C([O-])c2ccccc2S1(=O)=O.[Cu+2] | > 100 | > 100 | > 100 | > 100 | > 100 | > 100 | > 100 | > 100 | > 100 | 41.2 |  |  |  |  |  |  |  |  |  |  |
| CCCCCCCCCCCCCCC(C(=O)[O-])[n+]1ccccc1 (configuration not stated) | > 100 | > 100 | > 100 | > 100 | > 100 | > 100 | > 100 | > 100 | > 100 | > 100 |  |  |  |  |  |  |  |  |  |  |
| COc1cc2c(cc1OCCCOc1cc3c(cc1OC)C(=O)N1CC(F)(F)C[C@H]1C=N3)N=C[C@@H]1CC(F)(F)CN1C2=O | 9.16 | 4.03 | 13 | 17.8 | 0.539 | 50.6 | 2.49 | 1.03 | 5.46 | 18.3 | 2 | 0.899 | 0.469 | 0.641 | 0.446 | 0.216 | 0.0635 | 10.4 | 0.814 | 0.228 |
| COC(=O)C12OCC34C(CC5C(C)C6=CC(=O)OC6=CC5(C)C3C(O)C1O)OC(=O)C(OC(C)=O)C24 (configuration not stated) | 34.1 | 26.2 | 33.9 | 40.1 | 65.7 | 42.5 | 22.6 | 24.6 | 30 | > 91 |  |  |  |  |  |  |  |  |  |  |
| Cc1cccc(NC(N)=S)c1 |  |  | > 100 | > 100 |  | > 100 |  | > 100 | > 100 | > 100 |  |  |  |  |  |  |  |  |  |  |
| NC(CCCNc1ccc(O)cc1)C(=O)O (configuration not stated) | > 62.2 | 42.7 | > 100 | > 62.6 | > 100 | > 60.7 | > 90.3 | > 100 | > 70.5 | > 100 |  |  |  |  |  |  |  |  |  |  |
| NS(=O)(=O)c1ccc(C(=O)O)cc1 | > 100 | > 100 | > 100 | > 100 | > 100 | > 100 | > 100 | > 100 |  | > 100 |  |  |  |  |  |  |  |  |  |  |
| COc1ccc2c(c1)C(=O)c1c-2n(CCCCl)c(=O)c2cc([N+](=O)[O-])ccc12 | > 100 |  | > 100 |  | 0.21 | > 100 | > 100 | 0.963 | 98.5 | > 100 | 1.59 | 0.289 | 0.123 | 0.0917 | < 0.0505 | < 0.0262 | < 0.01 | 0.0575 | 0.902 | < 0.0265 |
| Nc1ccc([As](=O)(O)O)cc1 | > 100 | > 100 | > 100 | > 100 | > 100 | > 100 | > 100 | > 100 | > 100 | > 100 |  |  |  |  |  |  |  |  |  |  |
| Cn1ncc2c(=O)[nH]c(-c3ccccc3)nc21 | > 100 | > 100 | > 100 | > 100 | > 100 | > 100 | > 100 | > 100 | > 100 | > 100 |  |  |  |  |  |  |  |  |  |  |
| CC(C)(c1ccccc1)c1ccc(Oc2ccc3c(c2)-c2nc-3nc3[nH]c(nc4nc(nc5[nH]c(n2)c2ccc(Oc6ccc(C(C)(C)c7ccccc7)cc6)cc52)-c2cc(Oc5ccc(C(C)(C)c6ccccc6)cc5)ccc2-4)c2ccc(Oc4ccc(C(C)(C)c5ccccc5)cc4)cc32)cc1 | > 100 | > 100 | > 100 |  |  |  | > 100 | > 100 | > 100 | > 100 |  |  |  |  |  |  |  |  |  |  |
| O=C1CC(c2ccccc2)NCCCCN2CC(CN1)C(C(O)c1ccccc1)C2=O (configuration not stated) | > 100 | > 100 | > 100 | > 100 | > 100 | > 100 | > 100 | > 100 | > 100 | > 100 |  |  |  |  |  |  |  |  |  |  |
| O=C(O)\C=C/C=C/C=C/C=C/C(=O)O | > 100 | > 100 | > 100 | > 100 | > 100 | > 100 | > 100 | > 100 | > 100 | > 100 |  |  |  |  |  |  |  |  |  |  |
| CC1(C)CCCC2(C)C3=C(CCC12)C(=O)OC3 (configuration not stated) | > 100 | > 100 | > 100 | > 100 | > 100 | > 100 | > 100 | > 100 | > 100 |  |  |  |  |  |  |  |  |  |  |  |

— PubChem BioAssay (NCI)
